# Assay results taken from US20190136321A1, “USE OF TRANSLATIONAL PROFILING TO IDENTIFY TARGET MOLECULES FOR THERAPEUTIC TREATMENT” (The Regents of The University of California, priority 2013, published 2019).
# Key:
# [1] = tested on: Normal human lung fibroblasts; assay: Procollagen Type 1 C-Peptide (PIP EIA) in TGF-β treated fibroblasts; format: cell-based; conditions: 10 ng/ml TGF-β, 24 hours
# Description: Normal human lung fibroblasts (Lonza #CC-2512) were cultured in DMEM+10% FBS supplemented with Penicillin, Streptomycin and Glutamax (Invitrogen) at 37° C. in a humidified incubator with 5% CO2. Cell passage numbers 2 through 5 were used for all experiments.
# (§1) On Day 0, fibroblasts were seeded and cultured under normal conditions overnight. On Day 1, media was removed, cells were washed with PBS and then incubated for 48 hrs in serum free media (DMEM supplemented with penicillin, streptomycin, and glutamax). On Day 3, media was removed and cells were cultured for 24 hrs with fresh serum free media ±PAMi and ±10 ng/ml TGF-β. After this 24 hour incubation, about 6×10^6 cells/10 cm plate and about 1×10^6 cells/well of a 6-well plate were used for ribosomal profiling and western blot analysis, respectively.
# Culture Media was collected, centrifuged to pellet cellular debris, and stored at −80° C. Procollagen Type 1 C-Peptide (PIPC) was quantified using the (PIP) EIA kit (Clontech Cat# MK101) according to manufacturer's instructions.
# [2] = tested on: Normal human lung fibroblasts; assay: Ribosomal profiling of TGF-β treated fibroblasts; format: cell-based
# Description: as §1
# Cells were washed with cold PBS supplemented with cycloheximide and lysed with 1× mammalian lysis buffer for 10 min on ice. Lysates were clarified by centrifugation for 10 min at 14,000 rpm and supernatants were collected. Cell lysates were processed to generate the ribosomal protected fragments and total mRNA according to the instructions included with the ARTseq Ribosome Profiling Kit. Sequencing of total RNA (RNA) and of ribosome-protected fragments of RNA (RPF) was carried out with standard Illumina rna seq methodology.
# RNA-seq reads were processed with tools from the FASTX-Toolkit (fastq_quality_trimmer, fastx_clipper and fastx_trimmer). Unprocessed and processed reads were evaluated for a variety of quality measures using FastQC. Processed reads were mapped to the human genome using Tophat. Gene-by-gene assessment of the number of fragments strictly and uniquely mapping to the coding region of each gene was conducted using HTSeq-count, a component of the HTSeq package. Differential analyses of the transforming effect of TGF-β on fibroblasts and effect of PAMi treatment on this transformation were carried out with the software packages DESeq for transcription (RNA counts) and translational rate (RPF counts) and BABEL for translational efficiency based upon ribosomal occupancy as a function of RNA level (RNA and RPF counts). Genes with low counts in either RPF or RNA were excluded from differential analyses. Pathway and network analyses of differential data was conducted using Ingenuity Pathway Analysis (IPA).
substance,measurement,setting,value
TGF-β,increase in procollagen production,[1],approximately 7 fold
same,genes in the pathway having an increase in translational efficiency,"[2]; fibroblasts treated with TGF-β, 141 pathway genes",118 of the 141
same,mean translational efficiency of the 141 pathway-associated genes,[2]; fibroblasts upon TGF-β treatment,−1.05 log 2 relative to population mean
same,"mean increase in translational efficiency, all genes in the pathway (printed: these 12 genes)","[2]; fibroblasts, TGF-β",0.65 log 2
same,"mean increase in translational efficiency, subset of 12 genes","[2]; fibroblasts, TGF-β",1.3 log 2
